In patent publication US20120196927A1, “PROPHYLACTIC AND/OR THERAPEUTIC AGENT FOR METABOLIC SYNDROME” (priority 2009, published 2012):

Key:
Assay type in all cases: in vivo, mouse
C57BL/6J-ob/ob mice = details: p.o. daily 5 weeks, nobiletin 200 mg/kg/day (No200), Pioglitazone 30 mg/kg/day (P30)
Description: Diabetes model mice and the experimental system were as follows. As the diabetes model mice, 7 week age of male C57BL/6J-ob/ob (hereinafter, it was referred to as “ob/ob”) were purchased from Charles River Laboratories Japan Inc., and used as 10 mice/group.
For the negative control group (from FIGS. 5 to 10, it was shown as Vehicle; hereinafter, it is referred to as “solvent administration group”), 0.3% of CMC aqueous solution was administrated orally for 5 weeks in everyday at the dosage of 0.01 mL/g body weight. For the positive control group (in FIGS. 5 to 10 and hereinafter, it was referred to as “P30 administrated group”), 3 mg of Pioglitazone was suspended in 0.3% CMC aqueous solution so as to be orally administrated at the dosage of 0.01 mL/g body weight for 5 weeks in everyday (dosage: 30 mg/kg body weight/day).
For the sample ingestion group (in FIGS. 5 to 10 and hereinafter, it is referred to as “No200 ingestion group”), 20 mg of nobiletin purified as mentioned above (1) was suspended in 0.3% of carboxymethylcellulose (CMC) aqueous solution so as to be orally administrated at the dose of 0.01 mL/g body weight for 5 weeks in everyday (the dose: 200 mg/kg/day).
The body weight of mice, ingestion amount, weight of the white adipose tissue and liver weight of each mice were measured as the same as described in the example 3.

GLUT4 protein = test: Diabetes model mice: GLUT4 protein expression level (Western blotting); details: ob/ob mice, nobiletin 200 mg/kg/day, Pioglitazone 30 mg/kg/day
Description: After finishing the experiment, the white adipose tissue and skeletal muscle were excised according to that described in the example 1, protein expression level of GLUT 4 were detected by using Western blotting method. The expression levels of GLUT4 protein were determined by using Na^+/K^+ ATPase α-1 protein as an internal reference.

[1] = system: adipose cells of the white adipose tissue; test: Diabetes model mice: size of adipose cells of the white adipose tissue; details: 200 mg/kg of nobiletin
male C57BL/6 mice [2] = test: Nobiletin, obesity-induced mice: body weight and ingestion amount; details: for Body weight: HFD obesity-induced mice; for Ingestion amount, [Final Average]: average of 5 weeks; for Body weight, [Final gain]: gained amount during 0 to +5 weeks; for Ingestion amount: per mouse in 24 hrs
Excerpt: (§1) Six weeks age of male C57BL/6 mice were preliminary reared for 1 week (−9 to −8 week); then classified into 4 groups (n=9 in each group). LFD was given to one group and HFD was given to other 3 groups for 8 weeks (−8 to +5 week). From 8 weeks (15 week age) to 13 weeks, each group was given the following agents per os for 5 weeks in everyday. In below, the LFD administration group was defined that they ingested LFD; the HFD administration group is defined that they ingested the HFD without nobiletin. The compositions of the LFD and HFD are the same as those used in the Example 3.
(§2) To both of the LFD administration group and the HFD administration group, 0.3% CMC aqueous solution was given at the amount of 0.01 mL/g body weight. […] The group to which nobiletin was given at the amount of 10 mg/kg/day was referred to as “No10 administration group; the abbreviated as HFD+No 10” and another group to which nobiletin was given at the amount of 100 mg/kg/day was referred to as “No 100 administration group; abbreviated as HFD+No 100”. The schedule of the feed ingestion and administration of the agent for the above-mentioned 4 groups were schematically shown in FIG. 12A.
In the table, [Final gain] means gained amount during 0 to +5 weeks. […] By this, it was shown that nobiletin has the effect to suppress the body weight gain after the obesity induction by ingesting the high fat diet.
The ingestion amount of each mouse was measured everyday from 1 to 8 day (0 week) in the beginning of the agent administration. The ingested amount in 24 hrs was measured per cage, and then the average ingestion amount (g) per mouse was calculated. The date of day 0 means that of the previous day of the administration beginning. After 2 weeks from the administration, it was measured twice a week. [Final average] means the average of 5 weeks.

male C57BL/6 mice [3] = test: Nobiletin, obesity-induced mice: tissue weight; details: HFD obesity-induced mice
Excerpt: as §1, §2

male C57BL/6 mice [4] = test: Nobiletin, obesity-induced mice: blood lipid, glucose and adiponectin level; details: HFD; for Adipo *2 (Relative level of adiponectin): blood adiponectin to total weight of the white adipose tissue
Description: After the completion of the experiment, the levels of the blood neutral fat, total cholesterol, glucose, and adiponectin in the fating state, and those of the blood neutral fat, total cholesterol, and glucose in satiety state were determined as the same as those in the Example 1. In the table 22, relative adiponectin level means the ratio of specific level of the blood adiponectin to the total weight of the white adipose tissue.

[5] = Western blotting, Vehicle = 1.00, 5 weeks
[6] = nobiletin 10 mg/kg/day p.o. 5 weeks
[7] = nobiletin 100 mg/kg/day p.o. 5 weeks
[8] = nobiletin 10 mg/kg/day p.o., HFD
[9] = nobiletin 100 mg/kg/day p.o., HFD
[10] = Fasting state, nobiletin 10 mg/kg/day p.o. 5 weeks
[11] = Fasting state, nobiletin 100 mg/kg/day p.o. 5 weeks
[12] = Satiety state, nobiletin 10 mg/kg/day p.o. 5 weeks
[13] = Satiety state, nobiletin 100 mg/kg/day p.o. 5 weeks

In the case of `COc1ccc(-c2cc(=O)c3c(OC)c(OC)c(OC)c(OC)c3o2)cc1OC` [nobiletin], the Gained body weight (C57BL/6J-ob/ob mice) is reported as 9.33 ± 0.49 g, the white adipose tissue (C57BL/6J-ob/ob mice) is reported as 5.69 ± 0.17 g and the “Gene expression level (ratio), Skeletal muscle (GLUT4 protein)” value (GLUT4 protein; [5]) is reported as 6.32. For the same compound, the “Gene expression level (ratio), White adipose tissue (GLUT4 protein)” value (GLUT4 protein; [5]) was 1.75, the “GLUT4 protein expression amount in the skeletal muscle, times higher than vehicle administration group” value (GLUT4 protein) was “about 6 times” and the “GLUT4 protein expression level in the white adipose tissue, times higher than vehicle administration group” value (GLUT4 protein) was 1.7 times. The “shrinking of enlarged adipose cells of the white adipose tissue” value [1] was “fails to shrink the adipose cells”, the Body weight (male C57BL/6 mice [2]; [6]) was 33.14 ± 1.02 g and the Body weight (male C57BL/6 mice [2]; nobiletin 10 mg/kg/day p.o., 0 weeks after administration) was 31.07 ± 0.78 g. For the same compound, the Body weight (male C57BL/6 mice [2]; nobiletin 10 mg/kg/day p.o., 1 week) was 31.10 ± 0.72 g, the Body weight (male C57BL/6 mice [2]; nobiletin 10 mg/kg/day p.o., 2 weeks) was 32.10 ± 0.85 g and the Body weight (male C57BL/6 mice [2]; nobiletin 10 mg/kg/day p.o., 3 weeks) was 33.01 ± 1.01 g. It also gave a Body weight (male C57BL/6 mice [2]; nobiletin 10 mg/kg/day p.o., 4 weeks) of 32.58 ± 0.97 g, a Body weight (male C57BL/6 mice [2]; [7]) of 31.88 ± 0.68 g and a Body weight (male C57BL/6 mice [2]; nobiletin 100 mg/kg/day p.o., 0 weeks after administration) of 31.21 ± 0.60 g. For the same compound, the Body weight (male C57BL/6 mice [2]; nobiletin 100 mg/kg/day p.o., 1 week) was 29.93 ± 0.52 g, the Body weight (male C57BL/6 mice [2]; nobiletin 100 mg/kg/day p.o., 2 weeks) was 30.61 ± 0.60 g and the Body weight (male C57BL/6 mice [2]; nobiletin 100 mg/kg/day p.o., 3 weeks) was 31.62 ± 0.62 g. The Body weight (male C57BL/6 mice [2]; nobiletin 100 mg/kg/day p.o., 4 weeks) was 31.28 ± 0.59 g, the “Ingestion amount, [Final Average]” value (male C57BL/6 mice [2]; [8]) was 2.58 ± 0.1 g and the “Ingestion amount, [Final Average]” value (male C57BL/6 mice [2]; [9]) was 2.61 ± 0.08 g. For the same compound, the “Body weight, [Final gain]” value (male C57BL/6 mice [2]; [8]) was 2.08 ± 0.69 g, the “Body weight, [Final gain]” value (male C57BL/6 mice [2]; [9]) was 0.67 ± 0.37 g and the Ingestion amount (male C57BL/6 mice [2]; day 0 (previous day of administration beginning), nobiletin 10 mg/kg/day group) was 2.36 ± 0.04 g. The Ingestion amount (male C57BL/6 mice [2]; day 0 (previous day of administration beginning), nobiletin 100 mg/kg/day group) was 2.36 ± 0.04 g, the Ingestion amount (male C57BL/6 mice [2]; day 1, nobiletin 10 mg/kg/day p.o., HFD) was 2.28 ± 0.13 g and the Ingestion amount (male C57BL/6 mice [2]; day 1, nobiletin 100 mg/kg/day p.o., HFD) was 1.57 ± 0.09 g. For the same compound, the Ingestion amount (male C57BL/6 mice [2]; day 2, nobiletin 10 mg/kg/day p.o., HFD) was 1.85 ± 0.19 g, the Ingestion amount (male C57BL/6 mice [2]; day 2, nobiletin 100 mg/kg/day p.o., HFD) was 1.71 ± 0.13 g and the Ingestion amount (male C57BL/6 mice [2]; day 3, nobiletin 10 mg/kg/day p.o., HFD) was 1.85 ± 0.19 g. It also gave an Ingestion amount (male C57BL/6 mice [2]; day 3, nobiletin 100 mg/kg/day p.o., HFD) of 1.71 ± 0.13 g, an Ingestion amount (male C57BL/6 mice [2]; day 4, nobiletin 10 mg/kg/day p.o., HFD) of 2.27 ± 0.28 g and an Ingestion amount (male C57BL/6 mice [2]; day 4, nobiletin 100 mg/kg/day p.o., HFD) of 1.83 ± 0.15 g. For the same compound, the Ingestion amount (male C57BL/6 mice [2]; day 5, nobiletin 10 mg/kg/day p.o., HFD) was 1.78 ± 0.21 g, the Ingestion amount (male C57BL/6 mice [2]; day 5, nobiletin 100 mg/kg/day p.o., HFD) was 1.59 ± 0.20 g and the Ingestion amount (male C57BL/6 mice [2]; day 6, nobiletin 10 mg/kg/day p.o., HFD) was 2.36 ± 0.14 g. For the same compound, the Ingestion amount (male C57BL/6 mice [2]; day 6, nobiletin 100 mg/kg/day p.o., HFD) was 2.04 ± 0.09 g, the Ingestion amount (male C57BL/6 mice [2]; day 7, nobiletin 10 mg/kg/day p.o., HFD) was 2.99 ± 0.07 g and the Ingestion amount (male C57BL/6 mice [2]; day 7, nobiletin 100 mg/kg/day p.o., HFD) was 2.62 ± 0.12 g. The Ingestion amount (male C57BL/6 mice [2]; day 8, nobiletin 10 mg/kg/day p.o., HFD) was 2.12 ± 0.32 g, the Ingestion amount (male C57BL/6 mice [2]; day 8, nobiletin 100 mg/kg/day p.o., HFD) was 2.43 ± 0.03 g and the “Tissue Weight, Kidney” value (male C57BL/6 mice [3]; [6]) was 0.34 ± 0.02 g/100 g of body weight. The “Tissue Weight, Liver” value (male C57BL/6 mice [3]; [6]) was 1.28 ± 0.08 g/100 g of body weight, the “Tissue Weight, White adipose tissue” value (male C57BL/6 mice [3]; [6]) was 1.96 ± 0.28 g/100 g of body weight and the “Tissue Weight, White adipose tissue [Periphery of genitals]” value (male C57BL/6 mice [3]; [6]) was 1.23 ± 0.19 g/100 g of body weight. For the same compound, the “Tissue Weight, White adipose tissue [Periphery of intestine]” value (male C57BL/6 mice [3]; [6]) was 0.27 ± 0.04 g/100 g of body weight, the “Tissue Weight, White adipose tissue [Periphery of kidney]” value (male C57BL/6 mice [3]; [6]) was 0.47 ± 0.07 g/100 g of body weight and the “Tissue Weight, Kidney” value (male C57BL/6 mice [3]; [7]) was 0.35 ± 0.01 g/100 g of body weight. The “Tissue Weight, Liver” value (male C57BL/6 mice [3]; [7]) was 1.40 ± 0.04 g/100 g of body weight, the “Tissue Weight, White adipose tissue” value (male C57BL/6 mice [3]; [7]) was 1.52 ± 0.15 g/100 g of body weight and the “Tissue Weight, White adipose tissue [Periphery of genitals]” value (male C57BL/6 mice [3]; [7]) was 0.92 ± 0.09 g/100 g of body weight. The “Tissue Weight, White adipose tissue [Periphery of intestine]” value (male C57BL/6 mice [3]; [7]) was 0.20 ± 0.02 g/100 g of body weight, the “Tissue Weight, White adipose tissue [Periphery of kidney]” value (male C57BL/6 mice [3]; [7]) was 0.36 ± 0.03 g/100 g of body weight and the “Blood level, Adipo *1 (adiponectin)” value (male C57BL/6 mice [4]; [10]) was 7.19 ± 0.82 µg/mL. For the same compound, the “Blood level, Glucose” value (male C57BL/6 mice [4]; [10]) was 157.47 ± 10.54 mg/dL, the “Blood level, T-CHO” value (male C57BL/6 mice [4]; [10]) was 109.88 ± 9.09 mg/dL and the “Blood level, TG” value (male C57BL/6 mice [4]; [10]) was 79.99 ± 8.04 mg/dL. For the same compound, the “Blood level, Adipo *1 (adiponectin)” value (male C57BL/6 mice [4]; [11]) was 6.96 ± 0.99 µg/mL, the “Blood level, Glucose” value (male C57BL/6 mice [4]; [11]) was 128.49 ± 5.59 mg/dL and the “Blood level, T-CHO” value (male C57BL/6 mice [4]; [11]) was 131.55 ± 8.63 mg/dL. The “Blood level, TG” value (male C57BL/6 mice [4]; [11]) was 78.69 ± 6.57 mg/dL, the “Blood level, Glucose” value (male C57BL/6 mice [4]; [12]) was 224 ± 24.67 mg/dL and the “Blood level, T-CHO” value (male C57BL/6 mice [4]; [12]) was 147.47 ± 10.40 mg/dL. For the same compound, the “Blood level, TG” value (male C57BL/6 mice [4]; [12]) was 141.05 ± 12.25 mg/dL, the “Blood level, Glucose” value (male C57BL/6 mice [4]; [13]) was 224.76 ± 21.88 mg/dL and the “Blood level, T-CHO” value (male C57BL/6 mice [4]; [13]) was 169.24 ± 6.03 mg/dL. For the same compound, the “Blood level, TG” value (male C57BL/6 mice [4]; [13]) was 100.80 ± 14.95 mg/dL, the “Adipo *2 (Relative level of adiponectin)” value (male C57BL/6 mice [4]; Fasting state, nobiletin 10 mg/kg/day p.o.) was 3.87 ± 0.86 µg/mL/g and the “Adipo *2 (Relative level of adiponectin)” value (male C57BL/6 mice [4]; Fasting state, nobiletin 100 mg/kg/day p.o.) was 5.34 ± 0.97 µg/mL/g.
